Assay: xn = mol fraction of the nth substance listed
Settings: 308.15 K, Liquid

CCCCCCCCC [nonane] + C1CCCCC1
Settings	mass density [kg/m3]
100 kPa, x2 = 0	705.8
100 kPa, x2 = 0.09303	708.8
100 kPa, x2 = 0.2009	712.6
100 kPa, x2 = 0.3051	716.8
100 kPa, x2 = 0.417	721.7
100 kPa, x2 = 0.512	726.3
100 kPa, x2 = 0.5996	731.2
100 kPa, x2 = 0.7052	737.9
100 kPa, x2 = 0.7993	745
100 kPa, x2 = 0.9039	754
101 kPa, x2 = 0	706.11
101 kPa, x2 = 0.1022	709.37
101 kPa, x2 = 0.1548	711.18
101 kPa, x2 = 0.2009	712.84
101 kPa, x2 = 0.2591	715.05
101 kPa, x2 = 0.3306	717.98
101 kPa, x2 = 0.4003	721.05
101 kPa, x2 = 0.4596	723.89
101 kPa, x2 = 0.5321	727.62
101 kPa, x2 = 0.612	732.19
101 kPa, x2 = 0.6649	735.49
101 kPa, x2 = 0.7224	739.39
101 kPa, x2 = 0.8047	745.58
101 kPa, x2 = 0.8686	751
101 kPa, x2 = 0.9405	757.89
2130 kPa, x2 = 0	707.5
2130 kPa, x2 = 0.09303	710.5
2130 kPa, x2 = 0.2009	714.3
2130 kPa, x2 = 0.3051	718.5
2130 kPa, x2 = 0.417	723.4
2130 kPa, x2 = 0.512	728
2130 kPa, x2 = 0.5996	733
2130 kPa, x2 = 0.7052	739.7
2130 kPa, x2 = 0.7993	746.8
2130 kPa, x2 = 0.9039	755.7
4150 kPa, x2 = 0	709.2
4150 kPa, x2 = 0.09303	712.2
4150 kPa, x2 = 0.2009	716
4150 kPa, x2 = 0.3051	720.2
4150 kPa, x2 = 0.417	725.1
4150 kPa, x2 = 0.512	729.7
4150 kPa, x2 = 0.5996	734.7
4150 kPa, x2 = 0.7052	741.5
4150 kPa, x2 = 0.7993	748.5
4150 kPa, x2 = 0.9039	757.5
6180 kPa, x2 = 0	710.9
6180 kPa, x2 = 0.09303	713.9
6180 kPa, x2 = 0.2009	717.7
6180 kPa, x2 = 0.3051	721.9
6180 kPa, x2 = 0.417	726.8
6180 kPa, x2 = 0.512	731.4
6180 kPa, x2 = 0.5996	736.4
6180 kPa, x2 = 0.7052	743.2
6180 kPa, x2 = 0.7993	750.3
6180 kPa, x2 = 0.9039	759.3
8210 kPa, x2 = 0	712.5
8210 kPa, x2 = 0.09303	715.5
8210 kPa, x2 = 0.2009	719.4
8210 kPa, x2 = 0.3051	723.6
8210 kPa, x2 = 0.417	728.5
8210 kPa, x2 = 0.512	733.1
8210 kPa, x2 = 0.5996	738.1
8210 kPa, x2 = 0.7052	744.9
8210 kPa, x2 = 0.7993	752
8210 kPa, x2 = 0.9039	761
10230 kPa, x2 = 0	714.1
10230 kPa, x2 = 0.09303	717.1
10230 kPa, x2 = 0.2009	721
10230 kPa, x2 = 0.3051	725.2
10230 kPa, x2 = 0.417	730.1
10230 kPa, x2 = 0.512	734.7
10230 kPa, x2 = 0.5996	739.8
10230 kPa, x2 = 0.7052	746.6
10230 kPa, x2 = 0.7993	753.6
10230 kPa, x2 = 0.9039	762.7
11250 kPa, x2 = 0	714.9
11250 kPa, x2 = 0.09303	717.9
11250 kPa, x2 = 0.2009	721.8
11250 kPa, x2 = 0.3051	726
11250 kPa, x2 = 0.417	730.9
11250 kPa, x2 = 0.512	735.5
11250 kPa, x2 = 0.5996	740.6
11250 kPa, x2 = 0.7052	747.4
11250 kPa, x2 = 0.7993	754.4
11250 kPa, x2 = 0.9039	763.5
12260 kPa, x2 = 0	715.7
12260 kPa, x2 = 0.09303	718.7
12260 kPa, x2 = 0.2009	722.6
12260 kPa, x2 = 0.3051	726.8
12260 kPa, x2 = 0.417	731.7
12260 kPa, x2 = 0.512	736.3
12260 kPa, x2 = 0.5996	741.4
12260 kPa, x2 = 0.7052	748.2
12260 kPa, x2 = 0.7993	755.3
12260 kPa, x2 = 0.9039	764.4
14290 kPa, x2 = 0	717.2
14290 kPa, x2 = 0.09303	720.3
14290 kPa, x2 = 0.2009	724.2
14290 kPa, x2 = 0.3051	728.3
14290 kPa, x2 = 0.417	733.3
14290 kPa, x2 = 0.512	737.9
14290 kPa, x2 = 0.5996	743
14290 kPa, x2 = 0.7052	749.8
14290 kPa, x2 = 0.7993	756.9
14290 kPa, x2 = 0.9039	766
16310 kPa, x2 = 0	718.7
16310 kPa, x2 = 0.09303	721.8
16310 kPa, x2 = 0.2009	725.7
16310 kPa, x2 = 0.3051	729.9
16310 kPa, x2 = 0.417	734.8
16310 kPa, x2 = 0.512	739.4
16310 kPa, x2 = 0.5996	744.5
16310 kPa, x2 = 0.7052	751.4
16310 kPa, x2 = 0.7993	758.4
16310 kPa, x2 = 0.9039	767.5
18340 kPa, x2 = 0	720.2
18340 kPa, x2 = 0.09303	723.2
18340 kPa, x2 = 0.2009	727.2
18340 kPa, x2 = 0.3051	731.4
18340 kPa, x2 = 0.417	736.3
18340 kPa, x2 = 0.512	740.9
18340 kPa, x2 = 0.5996	746.1
18340 kPa, x2 = 0.7052	752.9
18340 kPa, x2 = 0.7993	760
18340 kPa, x2 = 0.9039	769.1
20370 kPa, x2 = 0	721.7
20370 kPa, x2 = 0.09303	724.7
20370 kPa, x2 = 0.2009	728.6
20370 kPa, x2 = 0.3051	732.8
20370 kPa, x2 = 0.417	737.8
20370 kPa, x2 = 0.512	742.4
20370 kPa, x2 = 0.5996	747.6
20370 kPa, x2 = 0.7052	754.4
20370 kPa, x2 = 0.7993	761.5
20370 kPa, x2 = 0.9039	770.6
22390 kPa, x2 = 0	723.1
22390 kPa, x2 = 0.09303	726.1
22390 kPa, x2 = 0.2009	730.1
22390 kPa, x2 = 0.3051	734.3
22390 kPa, x2 = 0.417	739.3
22390 kPa, x2 = 0.512	743.9
22390 kPa, x2 = 0.5996	749.1
22390 kPa, x2 = 0.7052	755.9
22390 kPa, x2 = 0.7993	763
22390 kPa, x2 = 0.9039	772.1
24420 kPa, x2 = 0	724.5
24420 kPa, x2 = 0.09303	727.5
24420 kPa, x2 = 0.2009	731.5
24420 kPa, x2 = 0.3051	735.7
24420 kPa, x2 = 0.417	740.7
24420 kPa, x2 = 0.512	745.3
24420 kPa, x2 = 0.5996	750.5
24420 kPa, x2 = 0.7052	757.4
24420 kPa, x2 = 0.7993	764.4
24420 kPa, x2 = 0.9039	773.6
26450 kPa, x2 = 0	725.9
26450 kPa, x2 = 0.09303	728.9
26450 kPa, x2 = 0.2009	732.9
26450 kPa, x2 = 0.3051	737.1
26450 kPa, x2 = 0.417	742.1
26450 kPa, x2 = 0.512	746.8
26450 kPa, x2 = 0.5996	751.9
26450 kPa, x2 = 0.7052	758.8
26450 kPa, x2 = 0.7993	765.8
26450 kPa, x2 = 0.9039	775.1
28470 kPa, x2 = 0	727.2
28470 kPa, x2 = 0.09303	730.3
28470 kPa, x2 = 0.2009	734.2
28470 kPa, x2 = 0.3051	738.4
28470 kPa, x2 = 0.417	743.5
28470 kPa, x2 = 0.512	748.1
28470 kPa, x2 = 0.5996	753.3
28470 kPa, x2 = 0.7052	760.2
28470 kPa, x2 = 0.7993	767.2
28470 kPa, x2 = 0.9039	776.5
29490 kPa, x2 = 0	727.8
29490 kPa, x2 = 0.09303	730.9
29490 kPa, x2 = 0.2009	734.9
29490 kPa, x2 = 0.3051	739.1
29490 kPa, x2 = 0.417	744.1
29490 kPa, x2 = 0.512	748.7
29490 kPa, x2 = 0.5996	754
29490 kPa, x2 = 0.7052	760.9
29490 kPa, x2 = 0.7993	767.9
29490 kPa, x2 = 0.9039	777.2
30500 kPa, x2 = 0	728.5
30500 kPa, x2 = 0.09303	731.6
30500 kPa, x2 = 0.2009	735.6
30500 kPa, x2 = 0.3051	739.8
30500 kPa, x2 = 0.417	744.8
30500 kPa, x2 = 0.512	749.4
30500 kPa, x2 = 0.5996	754.7
30500 kPa, x2 = 0.7052	761.6
30500 kPa, x2 = 0.7993	768.6
30500 kPa, x2 = 0.9039	777.9
32530 kPa, x2 = 0	729.8
32530 kPa, x2 = 0.09303	732.9
32530 kPa, x2 = 0.2009	736.9
32530 kPa, x2 = 0.3051	741.1
32530 kPa, x2 = 0.417	746.1
32530 kPa, x2 = 0.512	750.8
32530 kPa, x2 = 0.5996	756
32530 kPa, x2 = 0.7052	762.9
32530 kPa, x2 = 0.7993	770
32530 kPa, x2 = 0.9039	779.3
34550 kPa, x2 = 0	731.1
34550 kPa, x2 = 0.09303	734.2
34550 kPa, x2 = 0.2009	738.2
34550 kPa, x2 = 0.3051	742.4
34550 kPa, x2 = 0.417	747.4
34550 kPa, x2 = 0.512	752
34550 kPa, x2 = 0.5996	757.3
34550 kPa, x2 = 0.7052	764.3
34550 kPa, x2 = 0.7993	771.3
34550 kPa, x2 = 0.9039	780.6
36580 kPa, x2 = 0	732.4
36580 kPa, x2 = 0.09303	735.4
36580 kPa, x2 = 0.2009	739.5
36580 kPa, x2 = 0.3051	743.7
36580 kPa, x2 = 0.417	748.7
36580 kPa, x2 = 0.512	753.3
36580 kPa, x2 = 0.5996	758.6
36580 kPa, x2 = 0.7052	765.6
36580 kPa, x2 = 0.7993	772.6
36580 kPa, x2 = 0.9039	781.9
38600 kPa, x2 = 0	733.6
38600 kPa, x2 = 0.09303	736.7
38600 kPa, x2 = 0.2009	740.8
38600 kPa, x2 = 0.3051	745
38600 kPa, x2 = 0.417	750
38600 kPa, x2 = 0.512	754.6
38600 kPa, x2 = 0.5996	759.9
38600 kPa, x2 = 0.7052	766.9
38600 kPa, x2 = 0.7993	773.9
38600 kPa, x2 = 0.9039	783.3
39620 kPa, x2 = 0	734.3
39620 kPa, x2 = 0.09303	737.4
39620 kPa, x2 = 0.2009	741.4
39620 kPa, x2 = 0.3051	745.6
39620 kPa, x2 = 0.417	750.6
39620 kPa, x2 = 0.512	755.3
39620 kPa, x2 = 0.5996	760.6
39620 kPa, x2 = 0.7052	767.5
39620 kPa, x2 = 0.7993	774.5
39620 kPa, x2 = 0.9039	783.9

Source: the NIST ThermoML archive (doi:10.1016/j.jct.2007.04.005)
